# Measured values reported in US20220289732A1, “HETEROCYCLIC WDR5 INHIBITORS AS ANTI-CANCER COMPOUNDS” (NOVARTIS AG, priority 2019, published 2022).
# Legend:
# [1] = biological target: wild type MLL1 four-member complex (MLL1-4C) (Homo sapiens, UniProt P61964); assay: MLL1 LC-MS assay (SAH production); type: biochemical; conditions: read-out: (b) MLL LCMS Peptide Val.v.1 Qualified AC50
# In short: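 MLL1-4C (30 nM final) was preincubated 20 min with compound (3-fold dilutions, 8 or 12 points) and SAM in Tris-HCl pH 8.0 buffer. H3K4me0 peptide (histone H3[1-21]-biotin) was then added, giving final 2.5 μM SAM and 10 μM substrate, and reactions ran 120 min at rt. After TFA/d4-SAH quench, SAH was quantified by LC-MS/MS and IC50 fitted from control-normalised activity.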
# WDR5 = WDR5 (Homo sapiens, UniProt P61964); assay: WDR5 HTRF binding assay; conditions: read-out: (a) WDR5 HTRF Pep Val v.1[Inhibitor/IC50]Qualified AC50
# In short: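 6 nM WDR5 and 20 nM biotin-MLL1 WIN peptide (3762-3773) were incubated with compound (12-point, 3-fold dilutions) in pH 7.5 Hepes/NaCl/DTT buffer for 20 min at rt. Streptavidin-APC plus anti-His-Eu were then added for 1 hr, with HTRF read at 665/615. IC50 was fit from control-normalized activity; the counter assay used 15 nM biotin-PEG-His peptide.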
# MV4-11 cells = assay: MV4-11 6-day cell growth CTG (CellTiter-Glo) assay; type: cell-based; conditions: Homo sapiens, MV4-11, 144 h, 6 days, read-out: (c) MLL/WDR5 cell proliferation assay//MLL/WDR5 proliferation MV4:11 Qualified AC50
# In short: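 Exponentially growing MV4-11 AML cells (RPMI 1640, 10% FBS) seeded at 300 cells/well with 12-point 1:3 compound dilutions, top final concentration 50 μM. Viability read by CellTiter-Glo luminescence after 6 days at 37° C; % inhibition vs DMSO-only wells fitted to dose-response for IC50.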
SMILES,AC50 [1] [nM],IC50 (WDR5) [nM],AC50 (MV4-11 cells) [nM]
"CCOc1cc([C@H](C)N2CCc3c(cc(CCN(C)CC)cc3-c3cn(C)nc3C)C2=O)ncc1Cl [Example 121, (S)-2-(1-(5-chloro-4-ethoxypyridin-2-yl)ethyl)-5-(1,3-dimethyl-1H-pyrazol-4-yl)-7-(2-(ethyl(methyl)amino)ethyl)-3,4-dihydroisoquinolin-1(2H)-one]",10 to 1000,< 10,10 to 1000
"CCOc1cc([C@H](C)N2CCc3c(cc(CCN(C)CC)cc3-c3ccc(N)nc3C)C2=O)ncc1C#N [Example 122, (S)-6-(1-(5-(6-amino-2-methylpyridin-3-yl)-7-(2-(ethyl(methyl)amino)ethyl)-1-oxo-3,4-dihydroisoquinolin-2(1H)-yl)ethyl)-4-ethoxynicotinonitrile]",10 to 1000,< 10,10 to 1000
"CCN(C)CCc1cc2c(c(-c3cn(C)nc3C)c1)CCN([C@@H](C)c1cnc(F)c(OC)c1)C2=O [Example 123, (S)-5-(1,3-dimethyl-1H-pyrazol-4-yl)-7-(2-(ethyl(methyl)amino)ethyl)-2-(1-(6-fluoro-5-methoxypyridin-3-yl)ethyl)-3,4-dihydroisoquinolin-1(2H)-one]",10 to 1000,< 10,10 to 1000
"CCOc1cc([C@H](C)N2CCc3c(cc(CCN(C)CC)cc3-c3cc(CO)cnc3Cl)C2=O)ncc1C#N [Example 124, (S)-6-(1-(5-(2-chloro-5-(hydroxymethyl)pyridin-3-yl)-7-(2-(ethyl(methyl)amino)ethyl)-1-oxo-3,4-dihydroisoquinolin-2(1H)-yl)ethyl)-4-ethoxynicotinonitrile]",10 to 1000,< 10,10 to 1000
"CCOc1cc([C@H](C)N2CCc3c(cc(CCN(C)CC)cc3-c3cn(C)c(=O)c(C)c3C)C2=O)ncc1C#N [Example 125, (S)-4-ethoxy-6-(1-(7-(2-(ethyl(methyl)amino)ethyl)-1-oxo-5-(1,4,5-trimethyl-6-oxo-1,6-dihydropyridin-3-yl)-3,4-dihydroisoquinolin-2(1H)-yl)ethyl)nicotinonitrile]",10 to 1000,< 10,10 to 1000
"CCOc1cc([C@H](C)N2CCc3c(cc(CCN(C)CC)cc3-c3cn(C)nc3C(F)F)C2=O)ncc1C#N [Example 126, (S)-6-(1-(5-(3-(difluoromethyl)-1-methyl-1H-pyrazol-4-yl)-7-(2-(ethyl(methyl)amino)ethyl)-1-oxo-3,4-dihydroisoquinolin-2(1H)-yl)ethyl)-4-ethoxynicotinonitrile]",10 to 1000,< 10,10 to 1000
"CCOc1cc([C@H](C)N2CCc3c(cc(CCN(C)CC)cc3-c3cn(CC)nc3C)C2=O)ncc1C#N [Example 127, (S)-4-ethoxy-6-(1-(7-(2-(ethyl(methyl)amino)ethyl)-5-(1-ethyl-3-methyl-1H-pyrazol-4-yl)-1-oxo-3,4-dihydroisoquinolin-2(1H)-yl)ethyl)nicotinonitrile]",10 to 1000,< 10,10 to 1000
"CCOc1cc([C@H](C)N2CCc3c(cc(CCN(C)CC)cc3-c3cc(C)cnc3C(F)F)C2=O)ncc1C#N [Example 128, (S)-6-(1-(5-(2-(difluoromethyl)-5-methylpyridin-3-yl)-7-(2-(ethyl(methyl)amino)ethyl)-1-oxo-3,4-dihydroisoquinolin-2(1H)-yl)ethyl)-4-ethoxynicotinonitrile]",10 to 1000,< 10,10 to 1000
"CCOc1cc(CN2CCc3c(cc(CCN(C)CC)cc3-c3cn(C)nc3C)C2=O)ncc1C#N [Example 129, 6-((5-(1,3-dimethyl-1H-pyrazol-4-yl)-7-(2-(ethyl(methyl)amino)ethyl)-1-oxo-3,4-dihydroisoquinolin-2(1H)-yl)methyl)-4-ethoxynicotinonitrile]",10 to 1000,< 10,10 to 1000
"CCOc1cc(CN2CCc3c(cc(CCN(C)CC)cc3-c3ccc(F)nc3C)C2=O)ncc1C#N [Example 130, 4-ethoxy-6-((7-(2-(ethyl(methyl)amino)ethyl)-5-(6-fluoro-2-methylpyridin-3-yl)-1-oxo-3,4-dihydroisoquinolin-2(1H)-yl)methyl)nicotinonitrile]",10 to 1000,< 10,10 to 1000
"CCOc1cc([C@H](C)N2CCc3c(cc(CCN(C)CC)cc3-c3cn(C)c(=O)cc3C)C2=O)ncc1C#N [Example 131, (S)-6-(1-(5-(1,4-dimethyl-6-oxo-1,6-dihydropyridin-3-yl)-7-(2-(ethyl(methyl)amino)ethyl)-1-oxo-3,4-dihydroisoquinolin-2(1H)-yl)ethyl)-4 ethoxynicotinonitrile]",10 to 1000,< 10,10 to 1000
"CCOc1cc(CN2CCc3c(cc(CCN(C)CC)cc3-c3ccc(F)nc3C)C2=O)ncc1F [Example 132, 2-((4-ethoxy-5-fluoropyridin-2-yl)methyl)-7-(2-(ethyl(methyl)amino)ethyl)-5-(6-fluoro-2-methylpyridin-3-yl)-3,4-dihydroisoquinolin-1(2H)-one]",10 to 1000,< 10,10 to 1000
"CCOc1cc(CN2CCc3c(cc(CCN(C)CC)cc3-c3cc(C)ncc3Cl)C2=O)ncc1C#N [Example 133, 6-((5-(5-chloro-2-methylpyridin-4-yl)-7-(2-(ethyl(methyl)amino)ethyl)-1-oxo-3,4-dihydroisoquinolin-2(1H)-yl)methyl)-4-ethoxynicotinonitrile]",10 to 1000,< 10,10 to 1000
"CCOc1cc([C@H](C)N2CCc3c(cc(CCN(C)CC)cc3-c3cn(C)nc3C)C2=O)ncc1C#N [Example 134, (S)-6-(1-(5-(1,3-dimethyl-1H-pyrazol-4-yl)-7-(2-(ethyl(methyl)amino)ethyl)-1-oxo-3,4-dihydroisoquinolin-2(1H)-yl)ethyl)-4-ethoxynicotinonitrile]",10 to 1000,< 10,10 to 1000

# Continued, in another order:
AC50 [1] [nM],IC50 (WDR5) [nM],SMILES,AC50 (MV4-11 cells) [nM]
10 to 1000,< 10,"CCOc1cc([C@H](C)N2CCc3c(cc(CCN(C)CC)cc3-c3cc(C)cnc3C)C2=O)ncc1C#N [Example 114, (S)-6-(1-(5-(2,5-dimethylpyridin-3-yl)-7-(2-(ethyl(methyl)amino)ethyl)-1-oxo-3,4-dihydroisoquinolin-2(1H)-yl)ethyl)-4-ethoxynicotinonitrile]",10 to 1000
10 to 1000,< 10,"CCOc1cc([C@H](C)N2CCc3c(cc(CCN(C)CC)cc3-c3cn(CCO)nc3C)C2=O)ncc1C#N [Example 115, (S)-4-ethoxy-6-(1-(7-(2-(ethyl(methyl)amino)ethyl)-5-(1-(2-hydroxyethyl)-3-methyl-1H-pyrazol-4-yl)-1-oxo-3,4-dihydroisoquinolin-2(1H)-yl)ethyl)nicotinonitrile]",10 to 1000
10 to 1000,< 10,"CCOc1cc([C@H](C)N2CCc3c(cc(CCN(C)CC)cc3-c3c[nH]nc3C)C2=O)ncc1C#N [Example 116, (S)-4-ethoxy-6-(1-(7-(2-(ethyl(methyl)amino)ethyl)-5-(3-methyl-1H-pyrazol-4-yl)-1-oxo-3,4-dihydroisoquinolin-2(1H)-yl)ethyl)nicotinonitrile]",10 to 1000
10 to 1000,< 10,"CCOc1cc([C@H](C)N2CCc3c(cc(CCN(C)CC)cc3-c3ccnc(F)c3C)C2=O)ncc1C#N [Example 117, (S)-4-ethoxy-6-(1-(7-(2-(ethyl(methyl)amino)ethyl)-5-(2-fluoro-3-methylpyridin-4-yl)-1-oxo-3,4-dihydroisoquinolin-2(1H)-yl)ethyl)nicotinonitrile]",10 to 1000
10 to 1000,< 10,"CCOc1cc([C@H](C)N2CCc3c(cc(CCN(C)CC)cc3-c3cc(C)cnc3Cl)C2=O)ncc1C#N [Example 118, (S)-6-(1-(5-(2-chloro-5-methylpyridin-3-yl)-7-(2-(ethyl(methyl)amino)ethyl)-1-oxo-3,4-dihydroisoquinolin-2(1H)-yl)ethyl)-4-ethoxynicotinonitrile]",10 to 1000
10 to 1000,< 10,"CCOc1cc([C@H](C)N2CCc3c(cc(CCN(C)CC)cc3-c3cccnc3C(F)F)C2=O)ncc1C#N [Example 119, (S)-6-(1-(5-(2-(difluoromethyl)pyridin-3-yl)-7-(2-(ethyl(methyl)amino)ethyl)-1-oxo-3,4-dihydroisoquinolin-2(1H)-yl)ethyl)-4-ethoxynicotinonitrile]",10 to 1000
10 to 1000,< 10,"CCOc1cc([C@H](C)N2CCc3c(cc(CCN(C)CC)cc3-c3cc(CO)cnc3Cl)C2=O)ncc1F [Example 120, (S)-5-(2-chloro-5-(hydroxymethyl)pyridin-3-yl)-2-(1-(4-ethoxy-5-fluoropyridin-2-yl)ethyl)-7-(2-(ethyl(methyl)amino)ethyl)-3,4-dihydroisoquinolin-1(2H)-one]",10 to 1000
